How the values were obtained:
Aromatase = biological target: T1, Aromatase (Homo sapiens, UniProt P11511); assay: Inhibition of recombinant human aromatase preincubated for 10 mins followed by substrate and beta-NADP+ addition and measured for 60 mins by fluorescence based assay
T1 sequence (P11511 whole entry): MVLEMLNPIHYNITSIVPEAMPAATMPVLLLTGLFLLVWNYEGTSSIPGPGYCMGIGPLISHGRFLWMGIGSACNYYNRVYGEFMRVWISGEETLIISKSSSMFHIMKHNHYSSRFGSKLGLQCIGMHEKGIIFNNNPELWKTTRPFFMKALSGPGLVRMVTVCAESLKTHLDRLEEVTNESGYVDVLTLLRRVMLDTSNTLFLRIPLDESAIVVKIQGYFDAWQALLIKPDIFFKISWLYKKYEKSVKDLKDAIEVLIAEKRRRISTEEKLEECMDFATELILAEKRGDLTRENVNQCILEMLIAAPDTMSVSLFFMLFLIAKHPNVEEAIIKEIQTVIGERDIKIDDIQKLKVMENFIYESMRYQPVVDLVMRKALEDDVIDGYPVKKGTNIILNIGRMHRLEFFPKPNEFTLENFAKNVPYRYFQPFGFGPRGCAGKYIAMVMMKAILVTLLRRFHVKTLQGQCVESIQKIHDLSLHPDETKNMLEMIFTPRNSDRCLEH

MCF7 = assay: Growth inhibition of human ER-positive MCF7 cells incubated for 72 hrs by cell counter method; assay type: functional; conditions: MCF7, 72 h
MDA-MB-231 = assay: Growth inhibition of human ER-negative MDA-MB-231 cells incubated for 72 hrs by cell counter method; assay type: functional; conditions: MDA-MB-231, 72 h

| SMILES | IC50 (Aromatase) [µM] | GI50 (MCF7) [µM] | GI50 (MDA-MB-231) [µM] |
| --- | --- | --- | --- |
| CCC#CCOc1ccc2c(=O)c3ccc(Cn4ccnc4)cc3oc2c1 | 0.77 | > 100 | > 100 |
| O=c1c2ccccc2oc2cccc(Cn3ccnc3)c12 | – | 59 | 44.3 |
| O=c1c2ccccc2oc2cc(Cn3ccnc3)ccc12 | – | 19.9 | 30.4 |
| N#Cc1ccc(C(c2ccc(C#N)cc2)n2cncn2)cc1 [LETROZOLE] | – | – | 34 |
| CCC#CCOc1cc(Cn2ccnc2)c2oc3ccccc3c(=O)c2c1 | 5.55 | 52.3 | 21.1 |
| CCC#CCOc1cc(Cn2ccnc2)c2c(=O)c3ccccc3oc2c1 | 2.85 | 6.3 | 17.5 |
| O=c1c2ccccc2oc2c(Cn3ccnc3)cccc12 | – | 69.1 | 58.3 |

From ChEMBL document CHEMBL4610109, “Targeting Orthosteric and Allosteric Pockets of Aromatase via Dual-Mode Novel Azole Inhibitors” (ACS Med Chem Lett, 2020)
